The test system of one test is Pseudoperonospora cubensis. Description: Fungicidal activity against Pseudoperonospora cubensis in cucumber plant assessed as cucumber downy mildew disease control at 31.3 ppm at 22 +/- 2 degC, 98% RH measured after 10 days. In kind it is functional.
Consider `CC1CC(CNC(=O)/C(C#N)=N/OCc2ccccc2)=NO1` (stereo not given), for which the Activity is 70%.

As for `CO/N=C(\C#N)C(=O)NCC1=NOC(C(C)(C)C)C1` (stereo not given), the Activity is given as 70%. The same measure, in the same setting: in the case of `CCO/N=C(C(=O)NC1=NOC(C)(C)C1)\C(N)=N\O` it was 70%; in that of `CCO/N=C(\C#N)C(=O)NC1=NOC(C)C1` (stereo not given), 70%. As to `CO/N=C(C(=O)NC1=NOC(C)C1)\C(N)=N\O` (stereo not given), the Activity was 70%.

As for `CO/N=C(\C#N)C(=O)NC1=NOC(C)C1` (stereo not given), the Activity was determined as 70%. `CCO/N=C(\C#N)C(=O)NCC1=NOC(C)C1` (stereo not given): the Activity is listed as 70%. On to `CO/N=C(\C#N)C(=O)NCC#N`, for which the Activity came out at 70%. On to `CO/N=C(C(=O)NC1=NOC(C)(C)C1)\C(N)=N\O`, for which the Activity stood at 70%. Turning to `CCC1(C)CC(NC(=O)C(=N/OC)/C(N)=N/O)=NO1` (stereo not given), the Activity worked out at 70%. `CO/N=C(\C#N)C(=O)NCc1cccnc1`: the Activity was 70%. On to `CO/N=C(\C#N)C(=O)NCc1cc(C)on1`, for which the Activity came out at 70%.

On to `CC(C)O/N=C(\C#N)C(=O)NC1=NOC(C)C1` (stereo not given), for which the Activity came to 70%.

The subject of another test is Pseudoperonospora cubensis. Description: Fungicidal activity against Pseudoperonospora cubensis in cucumber plant assessed as cucumber downy mildew disease control at 125 ppm at 22 +/- 2 degC, 98% RH measured after 10 days. It counts as functional.
On to `CC(C)O/N=C(\C#N)C(=O)NCC1=NOC(C)C1` (stereo not given), for which the Activity stood at 70%.

On to `CO/N=C(\C(=N)SC)C(=O)NC1=NOC(C)(C)C1`, for which the Activity was 70%.

On to `CCO/N=C(\C#N)C(=O)NC1=NOC(C)C1` (stereo not given), for which the Activity is 70%.

As for `CO/N=C(\C#N)C(=O)NCC#N`, the Activity was 70%. In the case of `CO/N=C(\C#N)C(=O)NC1=NOC(C(C)(C)C)C1` (stereo not given), the Activity was determined as 70%. With `CO/N=C(\C#N)C(=O)NCC1=NOC(c2ccccc2)C1` (stereo not given), the Activity stood at 70%. On the same count and under the same terms, the figure for `CC(C)O/N=C(\C#N)C(=O)NC1=NOC(C)C1` (stereo not given) is 70%.

For another test, the system named is Pseudoperonospora cubensis. Briefly: Fungicidal activity against Pseudoperonospora cubensis in cucumber plant assessed as cucumber downy mildew disease control at 7.8 ppm at 22 +/- 2 degC, 98% RH measured after 10 days. It counts as functional.
Regarding `CO/N=C(\C#N)C(=O)NC1=NOC(C)(C)C1`, the Activity is 70%. Still for that read-out and setting: in the case of `CO/N=C(\C#N)C(=O)NCC1=NOC(C)C1` (stereo not given) it was 70%; in that of `CO/N=C(\C#N)C(=O)NCC1=NOC(C)(C)C1`, 70%.

For the next test, the system named is Pseudoperonospora cubensis. Briefly: Fungicidal activity against Pseudoperonospora cubensis in cucumber plant assessed as cucumber downy mildew disease control at 500 ppm at 22 +/- 2 degC, 98% RH measured after 10 days. It counts as functional.
As for `CO/N=C(\C(=N)OC)C(=O)NC1=NOC(C)(C)C1`, the Activity was less than 70%. Same read-out and setting: in the case of `CO/N=C(/C(=O)NC1=NOC(C)(C)C1)C(=O)N(C)C` it was less than 70%; in that of `CO/N=C(\C#N)C(=O)NC1=NOC(c2ccccc2)C1` (stereo not given), less than 70%; in that of `C=CCNC(=O)/C(C#N)=N/OC`, less than 70%. The same measure, in the same setting: in the case of `CO/N=C(\C(N)=O)C(=O)NC1=NOC(C)(C)C1` it was less than 70%; in that of `CC1(C)CC(NC(=O)C(=N/OCc2ccccc2)/C(N)=N/O)=NO1`, less than 70%. As to `CO/N=C(/C(=O)NC1=NOC(C)(C)C1)C(=O)OC`, the Activity is reported as less than 70%. Still for that read-out and setting: in the case of `CC1CC(NC(=O)/C(C#N)=N/OCc2ccccc2)=NO1` (stereo not given) it was less than 70%; in that of `N#C/C(=N\OCc1ccccc1)C(=O)NCCCl`, less than 70%. On the same count and under the same terms, the figure for `CO/N=C(\C#N)C(=O)NCc1ccsc1` is less than 70%; for `CNC(=O)/C(=N\OC)C(=O)NC1=NOC(C)(C)C1` it is less than 70%. Same read-out and setting: in the case of `C#CCNC(=O)/C(C#N)=N/OC` it was less than 70%.

Source of the values: ChEMBL document CHEMBL3046248, “Synthesis and Fungicidal Activities of 2-Alkoxyiminoacetamides with a 4, 5-Dihydroisoxazole Ring” (1998).
